# Experimental data taken from patent publication US11981664B2, “Photoresponsive nutlin derivatives and uses thereof” (Rijksuniversiteit Groningen, priority 2018, dated 2024).
# Key:
# cellular outgrowth = assay: Cell outgrowth experiments with PPG photoproduct; format: cell-based; conditions: photoproduct formed upon photocleavage of photonutlin
# Method: (§1) Cells were plated at equal amounts (1000 cells per well) in a 24-wells plate followed by indicated treatments −/+irradiation (400 nm for 5 min) 24 h later. Cells were cultured under normal cell culture conditions for 6 days to allow colony outgrowth. Plates were fixed using 99.8% ice-cold methanol (Honeywell) for 10 min at RT. After a 1 time wash in H2O, cells were incubated in 0.2% crystal violet (Sigma) in H2O for at least 3 h at RT to stain cellular outgrowth.
# [1] = tested on: BJ-hTert, RKO (colon carcinoma), U2OS (osteosarcoma) cell lines; assay: Clonogenic outgrowth of additional cell lines; format: cell-based; conditions: 6 days after treatment + 400 nm irradiation for 5 min
# Method: (§2) FIG. 3: Functional p53 induction upon λ=400 nm irradiation in PPG-idasanutlin treated cells, a) RPE-1 cells were treated with indicated compounds (all 10 μM final) and fixed 4 h after 5 min (−/+400 nm) irradiation. Anti-p53 staining indicates p53 protein expression in the nucleus. […] Error bars represent mean +sd, ****P<0.0001 (unpaired t-test), Dots represent individual cells, n>125 cells per condition combined from 2 independent experiments. c) Representative western blot showing p53 protein levels in cells 4 h after addition of DMSO or PPG-idasanutlin and irradiation for indicated time periods. Hsp90 is used as a loading control. d) Selective outgrowth disadvantage in RPE-1 cells 6 days after PPG-idasanutlin treatment +400 nm irradiation for 5 min. e) Representative Western blot showing p53 protein levels in three cell lines (U2OS, RKO, BJhTert) 4 h after indicated treatments. f) Selective outgrowth inhibition in indicated cell lines 6 days after PPG-idasanutlin treatment +400 nm irradiation for 5 min. In all the experiments <1% DMSO was used.
# as §1, with “After a 1 time wash in H2O, cells were incubated in 0.2% crystal violet (Sigma) in H2O for at least 3 h at RT to stain cellular outgrowth.” left out
# [2] = Photochemical behavior (photocleavage) by UV-vis spectroscopy and UPLC-MS in aqueous buffer; format: physicochemical; conditions: λ=400 nm light, aqueous buffer pH=7.0
# Method: Thin Layer Chromatography (TLC) was performed using commercial Kieselgel 60, F254 silica gel plates with fluorescence-indicator UV254 (Merck, TLC silica gel 60 F254). For detection of components, UV light at λ=254 nm or λ=365 nm was used. Alternatively, oxidative staining using aqueous basic potassium permanganate solution (KMnO4) or aqueous acidic cerium phosphomolybdic acid solution (Seebach's stain) was used. Flash chromatography was performed on silica gel (Silicycle Siliaflash P60, […], 230-400 mesh). Drying of solutions was performed with MgSO4 and volatiles were removed with a rotary evaporator. Nuclear Magnetic Resonance spectra were measured with an Agilent Technologies 400-MR (400/54 Premium Shielded) spectrometer (400 MHz). All spectra were measured at room temperature (22-24° C.). Chemical shifts for ^1H- and ^13C-NMR measurements were determined relative to the residual solvent peaks in ppm (δH 7.26 for CHCl3, 2.50 for DMSO and 2.05 ppm for Acetone, δC 77.16 for CHCl3 and 39.52 for DMSO). The following abbreviations are used to indicate signal multiplicity: s, singlet; d, doublet; t, triplet; q, quartet; m, multiplet; brs, broad signal. All ^13C-NMR spectra are ^1H-broadband decoupled. High-resolution mass spectrometric measurements were performed on a Thermo scientific LTQ Orbitrap XL with ESI ionization. For spectroscopic measurements, solutions in Uvasol® grade solvents were measured in a 10 mm quartz cuvette. UV-Vis absorption spectra were recorded on an Agilent 8453 UV-Visible absorption Spectrophotometer.
# (§3) Following the synthesis of PPG-idasanutlin as described in Example 1, its photochemical behavior under physiological conditions was investigated, UV-vis spectroscopy and UPLC-MS measurements were performed in aqueous buffer at pH=7.0. […] Moreover, no significant spontaneous hydrolysis of PPG-idasanutlin for >24 h in buffer at room temperature was observed (data not shown).
# [3] = tested on: p53 in BJ-hTert, RKO (colon carcinoma), U2OS (osteosarcoma) cell lines; assay: p53 protein levels (western blot) in additional cell lines; format: cell-based; conditions: U2OS (all cell lines tested), after light irradiation, 4 h
# Method: as §2
# RPE-1 cells were plated at equal density in 6-well plates followed by indicated treatments −/+irradiation (400 nm for 5 min) 24 h later. Cells were fixed and collected 4 h after treatment by wash out of the medium, single wash in 1× PBS followed by addition of laemmli buffer (4% SDS, 20% glycerol and 0.125 M Tris HCl). […]
# [4] = tested on: p53 protein level in RPE-1 cells; assay: Immunofluorescent staining of nuclear p53 protein in RPE-1 cells; format: cell-based; conditions: for nuclear p53 protein levels: 4 h after addition, regardless of irradiation with 400 nm light
# Method: as §2
# RPE-1 cells were plated on coverslips at equal density and treated with indicated drugs before −/+irradiation (400 nm for 5 min). For immune fluorescent staining, cells were fixed 4 h after irradiation by wash out of the medium, single wash in phosphate-buffered saline (1× PBS) and incubation in 3.7% formaldehyde for 5 min. Next, fixed cells were permeabilized with 0.2% TritonX in 1× PBS for 5 min before blocking in 3% […] (BSA) in 1× PBS supplemented with 0.1% Tween (PBST) for 1 h (all at room temperature (RT)). Cells were incubated overnight at 4° C. with primary antibody in PBST with 3% BSA, washed three times with PBST, and incubated with secondary antibody and DAPI in PBST with 3% BSA for 2 h at RT. After a final three time wash with PBST coverslips were mounted on microscopic analysis slides using ProLong Gold antifade reagent (Thermo Fisher). The following antibodies were used: anti-p53 (sc-126, Santa Cruz, 1/1000), phalloidin (A12380, Molecular Probes, 1/1000) and goat anti-mouse/Alexa. 488 (A11029, Molecular Probes, 1/1000).
# Next, the biological activity of PPG-idasanutlin was investigated. Initial studies aimed at confirming a difference in p53 activation upon λ=400 nm light exposure after addition of the protected idasanutlin derivative (PPG-idasanutlin). To that end, non-transformed, p53-proficient retinal pigment epithelial cells (RPE-1) were treated with either DMSO (control), nutlin-3, idasanutlin or PPG-idasanutlin, followed by −/+irradiation with 400 nm light (FIG. 3).
# RPE-1 p53-venus cells = assay: Live-cell imaging of cell division after single-cell laser irradiation; format: cell-based; conditions: RPE-1 p53-venus cells irradiated with 405 nm laser (0.1 s pulse) after treatment
# Method: FIG. 5: Spatiotemporal control of PPG-idasanutlin. a) Schematic representation of microwell set-up for laser irradiation of individual RPE-1 cells to activate PPG-idasanutlin. Laser target area (represented. by red circle) for single pulse (0.1 sec irradiation at 5 um interspaced position) indicated with scale. Individual irradiated cells followed by measuring nuclear p53-venus levels (fluorescence) every 15 min for 3 h after laser irradiation. Approximately 200 cells in each microwell. b) Percentage of cells that divide within 8 h after indicated treatments. Mean±sem of three independent experiments. Error bars indicate 95% confidence intervals. c, d) p53-venus fluorescent signal in individual RPE-1 cells tracked over time after indicated treatments as represented in (a). Line-graphs represent mean of individual cells. n>42 cells per condition pooled from three independent experiments. ***p<0.005, ****p<0.0001 significance in 2-way anova interaction score. […]
# (§4) Using RPE-1 cells that stably expressed a venus-tagged version of p53 (p53-venus), p53 protein accumulation could be tracked with high time-resolution in individual cells by live-cell microscopy. […] To determine the functionality of the high spatiotemporal control obtained in this set-up, cell cycle progression was monitored in single cells following laser activation of PPG-idasanutlin (photorelease of idasanutlin).
# [5] = Spontaneous hydrolysis in buffer; format: physicochemical; conditions: buffer at room temperature (data not shown)
# Method: as §3
# p53-venus in RPE-1 cells = assay: Live-cell imaging of nuclear p53-venus signal after single-cell laser irradiation; format: cell-based
# Method: FIG. 5: Spatiotemporal control of PPG-idasanutlin. a) Schematic representation of microwell set-up for laser irradiation of individual RPE-1 cells to activate PPG-idasanutlin. Laser target area (represented. by red circle) for single pulse (0.1 sec irradiation at 5 um interspaced position) indicated with scale. Individual irradiated cells followed by measuring nuclear p53-venus levels (fluorescence) every 15 min for 3 h after laser irradiation. Approximately 200 cells in each microwell. b) Percentage of cells that divide within 8 h after indicated treatments. Mean±sem of three independent experiments. Error bars indicate 95% confidence intervals. c, d) p53-venus fluorescent signal in individual RPE-1 cells tracked over time after indicated treatments as represented in (a). Line-graphs represent mean of individual cells. n>42 cells per condition pooled from three independent experiments. ***p<0.005, ****p<0.0001 significance in 2-way anova interaction score.
# For live cell imaging, cells were grown in picovitro microwells covered by a silicon membrane^4 in Leibovitz's L-15 (Gibco) CO2-independent medium supplemented with ultraglutamine, penicillin/streptomycin and 10% fetal calf serum. Images for both fixed slides and live cell imaging were obtained using a Delta Vision Elite (applied precision) equipped with a 60× 1.6 NA or 10× 0.75 NA lens (Olympus) and cooled CoolSnap CCD camera. Directed laser irradiation was performed using a brief (0.1 s) pulse of a 405 nm laser on the Delta Vision Elite microscope equipped with a X4 laser module (Applied Precision). Image analysis was done using ImageJ software. […]
# as §4, with “idasanutlin). […]” for “idasanutlin).”
# [6] = tested on: p53 protein level in RPE-1 cells; assay: p53 protein levels (western blot) in RPE-1 cells, dose-response; format: cell-based; conditions: increasing duration of 400 nm irradiation and varying doses, 4 h
# Method: as §2, with “used. […]” for “used.”
# To examine the level of control over the dose-response of idasanutlin (employing PPG-idasanutlin), p53 protein levels in RPE-1 cells were determined by immunostaining after both increasing duration of 400 nm light irradiation and varying doses of PPG-idasanutlin (FIG. 3.c).
# RPE-1 cells = assay: Clonogenic outgrowth of RPE-1 cells; format: cell-based; conditions: 6 days
# Method: as §2
# as §1, with “After a 1 time wash in H2O, cells were incubated in 0.2% crystal violet (Sigma) in H2O for at least 3 h at RT to stain cellular outgrowth.” left out
smiles,measurement,setting,value
"CCN(CC)c1ccc2c(C(C)O)cc(=O)oc2c1 (stereo not drawn) [PPG 6, 7-(diethylamino)-4-(1-hydroxyethyl)-2H-chromen-2-one]",cellular outgrowth,cellular outgrowth,does not perturb
"CCN(CC)c1ccc2c(C(C)OC(=O)c3ccc(NC(=O)[C@@H]4N[C@@H](CC(C)(C)C)[C@](C#N)(c5ccc(Cl)cc5F)[C@H]4c4cccc(Cl)c4F)c(OC)c3)cc(=O)oc2c1 (stereo partly drawn) [PPG-idasanutlin, 1-(7-(diethylamino)-2-oxo-2H-chromen-4-yl)ethyl 4-((2R,3S,4R,5S)-3-(3-chloro-2-fluorophenyl)-4-(4-chloro-2-fluorophenyl)-4-cyano-5-neopentylpyrrolidine-2-carboxamido)-3-methoxybenzoate]",cellular outgrowth,[1],dramatic reduction
same,irradiation time for major photorelease of idasanutlin,[2],≤ 5 min
same,products observed upon photodeprotection,[2],solely the formation of idasanutlin and hydroxycoumarin
same,quantum yield of photocleavage,[2],0.1%
same,stabilization of p53,[3],Selective stabilization
same,p53 protein level,"[4]; 10 μM, irradiated with 400 nm light (5 min), fixed 4 h after",significant increase
same,p53 stabilization,[4]; without 400 nm irradiation,no functional effect
same,percentage of cells that divide within 8 h,RPE-1 p53-venus cells,strongly drops
same,time without significant spontaneous hydrolysis,[5],> 24 h
same,nuclear p53-venus signal,p53-venus in RPE-1 cells; neighbouring cells not irradiated by the 405 nm laser,significantly lesser extent
same,nuclear p53-venus signal,p53-venus in RPE-1 cells; non-irradiated cells from adjacent wells at micrometer distance,completely absent
same,nuclear p53-venus signal,"p53-venus in RPE-1 cells; single cells irradiated with 405 nm laser, 15 min intervals",selective stabilization
same,accumulation of p53 protein,[6],clear dose-response dependent accumulation
same,colony outgrowth,RPE-1 cells; after irradiation with 400 nm for 5 min,selectively blocked
same,colony outgrowth (growth inhibition),RPE-1 cells; without 400 nm irradiation,did not show any growth inhibition
"COc1cc(C(=O)O)ccc1NC(=O)[C@@H]1N[C@@H](CC(C)(C)C)[C@](C#N)(c2ccc(Cl)cc2F)[C@H]1c1cccc(Cl)c1F [idasanutlin, 4-((2R,3S,4R,5S)-3-(3-chloro-2-fluorophenyl)-4-(4-chloro-2-fluorophenyl)-4-cyano-5-neopentylpyrrolidine-2-carboxamido)-3-methoxybenzoic acid, reference compound]",nuclear p53 protein levels,[4]; 10 μM,significant increase
"COc1ccc(C2=N[C@@H](c3ccc(Cl)cc3)[C@@H](c3ccc(Cl)cc3)N2C(=O)N2CCNC(=O)C2)c(OC(C)C)c1 [nutlin-3, reference compound]",nuclear p53 protein levels,[4]; 10 μM,significant increase
